From patent US20240002470A1, “Method for separation and/or detection and/or in vitro quantification of infectious compounds in biological material” (priority 2020, published 2024)

B1: β2GPI: plasma glycoprotein called β2-glycoprotein I, grafted on beads as the reference (protein, UniProt P02749 20-345, looked up)
Beta-2-glycoprotein 1: GRTCPKPDDLPFSTVVPLKTFYEPGEEITYSCKPGYVSRGGMRKFICPLTGLWPINTLKCTPRVCPFAGILENGAVRYTTFEYPNTISFSCNTGFYLNGADSAKCTEEGKWSPELPVCAPIICPPPSIPTFATLRVYKPSAGNNSLYRDTAVFECLPQHAMFGNDTITCTTHGNWTKLPECREVKCPFPSRPDNGFVNYPAKPTLYYKDKATFGCHDGYSLDGPEEIECTKLGNWSAMPSCKASCKVPVKKATVVYQGERVKIQEKFKNGMLHGDKVSFFCKNKEKKCSYTEDAQCIDGTIEVPKCFKEHSSLAFWKTDASDVKPC
modifications: grafted on beads

Legend:
[1] = system: IPN virus (Infectious pancreatic necrosis virus); assay: Capture of IPN virus on magnetic microbeads coated with pepβ2GPI, RT-PCR quantification; format: binding; conditions: for IPN Copies: virus captured on coated beads from culture supernatant
Procedure: (§1) The pepβ2GPI were grafted onto the microbeads according to the supplier's recommendations. In summary, the microbeads are suspended in phosphate buffer at a pH of 6.0. The beads are then activated, for 15 minutes, in the presence of 1-ethyl-3-(3-Dimethylaminopropyl) carbodiimide and N-hydroxysuccinimide. After washing with HCl, 2 mM, the beads are suspended in a phosphate buffer at a pH of 7.5, containing the pepβ2GPI. The concentration of pepβ2GPI in this coupling buffer is 20 mg/L; the microbeads are incubated in the buffer with gentle and constant shaking at a temperature of 25° C. for 3 hours. The microbeads are then centrifuged at 1,500 rpm and the supernatant is removed; the centrifugation pellet is suspended in the same buffer as that used for the coupling of pepβ2GPI, which forms the suspension of microbeads coated with pepβ2GPI which we want to test.
(§2) One hundred microliters of viral culture supernatant to be studied are placed in an Eppendorf tube with 900 microliters of Tris buffer at a pH of 7.5 and 10 microliters of microbeads. The tubes are shaken horizontally to mix the microbeads well, and each tube is incubated at 37° C. or at room temperature (RT=22° C.) for 30 minutes. In each tube, the microbeads are then separated from the liquid phase by means of a magnet, placed externally against the wall of the tube, and the viral RNA is extracted. The beads are brought into contact with a viral lysis buffer, included in an RNA extraction kit: QIAamp RNA viral kit, sold by QIAGEN and the viral RNA is isolated according to the seller's recommendations.
The virus used is the IPN virus (Infectious pancreatic necrosis virus), responsible for necrosis of the pancreas in salmon, originating from a culture supernatant. The same protocol as described in example 1 was carried out.

[2] = system: bacteria present in treated wastewater; assay: Capture of bacteria present in treated wastewater on magnetic microbeads, culture and counting; format: binding
Procedure: One ml of the culture of bacteria to be studied is placed in a hemolysis tube. 100 μl of buffer are added, the trade name of which is TTGB, then 20 μl of microbeads. The tube is stirred horizontally, to mix the microbeads well, and incubated at 37° C. or at room temperature (TA=22° C.) for half an hour. At the end of the incubation, the microbeads are separated from the liquid phase by means of a magnet, placed externally against the wall of the tube. The microbeads are then washed twice with LB medium and then resuspended in 1 ml of BTS culture medium (Tripticase-Soy broth) having the following formulation: […]
This culture medium is brought to a boil and then autoclaved, to make it sterile, before use. 20 μl of the microbead suspension are taken and spread in a Petri dish containing TS agar (Trypticase-Soya agar) having the following formulation: […]
The Petri dishes are incubated at +37° C. for 24 hours. The bacteria that have grown on the agar are then counted.
The beads, on which β2GPI and peptides derived therefrom were grafted, were used to capture the bacteria present in treated wastewater. This water was recovered at the outlet of the purifier from the Grau-du-Roi treatment plant. The same experiment as that described in the previous example was carried out.

[3] = system: ISAV virus (Infectious salmon anemia virus); assay: Capture of ISAV virus on magnetic microbeads coated with pepβ2GPI, RT-PCR quantification; format: binding; conditions: for ISAV copies: virus captured on coated beads from culture supernatant
Text: The virus used is the ISAV virus (Infectious salmon anemia virus), responsible for anemia in salmon, originating from a culture supernatant.
The microbeads, intended to fix the virus, which are used are magnetic microbeads sold by the company MERCK under the name “Estapor® super-paramagnetic microspheres” which have a diameter between […].
as §1, §2
The RNA is then transcribed into complementary DNA, in the presence of reverse transcriptase, according to the following protocol:
Finally, the complementary DNA (cDNA) is amplified by chain reaction using a polymerase and quantified according to the following protocol: […]

E. coli B6054 = assay: Capture of E. coli B6054 on magnetic microbeads, culture on TS agar and counting; format: binding, Escherichia coli; conditions: E. coli B6054 colonies from captured beads
E. faecium = assay: Capture from blood culture on magnetic microbeads, culture on TS agar: E. faecium; format: binding
Procedure: (§3) The beads, on which β2GPI and peptides derived therefrom were grafted, were used for the capture of bacteria present in human blood and highlighted by blood culture.
(§4) These blood cultures are carried out by placing a venous blood sample […] in aerobic vials of BacT/ALERT®3D type. These flasks are then incubated in an automated system at 35° C. for at least 5 days. The bottles are equipped with a colorimetric detection system with a sensor located at the base of each bottle. Carbon dioxide produced by growing bacteria changes the color of the sensor; this change in color is detected by an automated system and indicates the presence of bacterial growth: these blood cultures are said to be positive. In the BacT/ALERT®3D vials there are particles of activated carbon, which inhibit antibiotics potentially present in the blood of patients, thereby improving the detection of microorganisms. To confirm the presence of bacteria in blood cultures which have been found positive, the hospital performs a culture on blood agar. […]
(§5) To test the interaction of microbeads coated with β2GPI and the peptides derived from them, with bacteria present in the blood, 1 ml of blood culture is taken from each sample and placed in a 15 ml tube. […] The bacteria that have grown on the agar were then counted.

S. maltophilia = assay: Capture from blood culture on magnetic microbeads, culture on TS agar: S. maltophilia; format: binding
Procedure: as §3, §4, §5

Row | Molecule | % compared to β2GPI ([1]; IPN copies captured relative to β2GPI beads) | IPN Copies [1] | % compared to β2GPI [2] | % compared to β2GPI ([3]; ISAV copies captured relative to β2GPI beads) | ISAV copies [3] | % compared to β2GPI (E. coli B6054) | % compared to β2GPI (E. faecium) | % compared to β2GPI (S. maltophilia)
1 | H-((SSLAFWK)2-K)2-K—NH2 [Peptide P11] | (175%) | 21 copies | 105% | (140%) | 78 350 copies | 91% | 88% | 29%
2 | B1 | – | 12 copies | 100% | – | 55 800 copies | 100% | 100% | 100%
